Source: patent US20250034134A1, “15-PGDH INHIBITOR AND USE THEREOF” (Wuhan Humanwell Innovative Drug Research and Development …, priority 2021, published 2025)

Tests used:
IBD in mice = assay: Efficacy on IBD in mice; assay type: in vivo, mouse; conditions: for DAI / body weight / inflammatory cell infiltration score of colon tissues / tissue injury score of colon tissues: vs G2 model group; for Colon weight CW (g): day 0 to day 9, DSS mice
Experimental: The mice in G2 to G6 were given 2% DSS aqueous solution on day 0 to day 6, normal water on […], vehicle/positive/test substance on day 0 to day 9, and euthanized on day 10 for necropsy. Colon weight (CW) and colon length (CL) were measured and colon tissues […] were subjected to histopathological examination.

15-PGDH = 15-PGDH (Homo sapiens (Human), UniProt P15428); assay: Inhibition test of compounds on 15-PGDH enzyme; assay type: biochemical
15-PGDH, sequence (P15428 whole entry): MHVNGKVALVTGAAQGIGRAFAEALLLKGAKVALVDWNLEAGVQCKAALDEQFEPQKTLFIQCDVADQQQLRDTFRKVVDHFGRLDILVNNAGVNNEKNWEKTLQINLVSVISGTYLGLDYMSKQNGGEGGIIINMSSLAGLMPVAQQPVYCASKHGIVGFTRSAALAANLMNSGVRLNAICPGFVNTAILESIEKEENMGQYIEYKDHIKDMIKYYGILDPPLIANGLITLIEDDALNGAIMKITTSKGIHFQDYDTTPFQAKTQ
Experimental: 15-PGDH (R&D Systems, Cat. No.: 5660-DH-010) was prepared to twice the final concentration, i.e., 30 nM, using Assay Buffer (50 mM Tris-HCl, pH 7.5, 0.01vol % Tween 20). The obtained mixture was then added to a 384-well white plate (Cisbio Bioassays, Cat. No. 66PL384025) at 8 μL/well. Negative control wells (with Assay Buffer only and without enzyme) were set. The compound was then prepared to 4 times the final concentration using Assay Buffer, i.e., diluted 3-fold to 10 concentrations starting from 4000 nM. The obtained mixture was added to the above white plate at 4 μL/well, mixed well, centrifuged at 1000 rpm for 1 minute, and incubated at 25° C. for 10 minutes. Both positive control wells (with 15-PGDH only) and negative control wells (without 15-PGDH) were set. A mixture of NAD^+(Select, Cat. No. S2518) and PGE2 (R&D Systems, Cat. No.: 2296/10) was then prepared using Assay Buffer. NAD^+ and PGE2 were prepared to four times their final concentrations, i.e., 2 mM and 0.12 mM, respectively, using Assay Buffer. The obtained mixture was then added to the above white plate at 4 μL/well, mixed well, centrifuged at 1000 rpm for 1 minute, and incubated at 25° C. for 30 minutes for the reaction. The fluorescence was detected at an excitation wavelength of 340 nm and an emission wavelength of 485 nm using instrument TECAN SPARK 20M. The IC50 value was calculated using four-parameter fitting with GraphPad Prism 8.0.

Pharmacokinetics in mice = assay type: in vivo; conditions: mouse, po; male CD-1 mice, 10 mg/kg, gavage, plasma
Experimental: The pharmacokinetic properties of the compounds of the present disclosure in mice were determined with reference to the following experimental methods.
Three male CD-1 mice were used, administered at a dose of 10 mg/kg, the route of administration was by gavage, and the vehicle was 5% DMSO+10% Solutol+85% Saline. The mice were fasted overnight, and the time points of blood collection were before administration and at 15 minutes, 30 minutes, 1 hour, 2 hours, 4 hours, 8 hours, and 24 hours after administration. Blood samples were centrifuged at 6800 g for 6 minutes at 2 to 8° C., and plasma was collected and stored at −80° C. 10 μL of plasma at each time point was taken, and added with 200 μL of methanol containing 100 ng/mL internal standard. The mixture was vortexed, mixed evenly, and then centrifuged at 18000 g for 7 minutes at 2 to 8° C. 200 μL of the mixture was transferred to a 96-well injection plate for LC-MS/MS quantitative analysis. The main pharmacokinetic parameters were analyzed using WinNonlin 7.0 software with non-compartmental model.

A549 cells = assay: Effect of compounds on PGE2 levels in A549 cell supernatant; assay type: cell-based; conditions: 20 nM compound, about 12 hours, after IL-10 stimulation; ELISA
Experimental: A549 cells (Procell, Wuhan) were cultured in F12K+10% FBS. The cells with good status in log phase were selected for the experiment, digested, counted, and inoculated into a 24-well plate at 8000 cells per well. The cells were cultured in a 37° C., 5% CO2 incubator overnight. After adherence, the cells were transferred to a culture medium containing 0.5% FBS and cultured for about 10 hours. IL-10 was added to each well (final concentration of 20 ng/mL, 1 mL per well), and a control group (without IL-10) was set up. After stimulation with IL-10 for about 24 hours, the cell culture medium of each well was aspirated and discarded, and the wells were gently washed with fresh culture medium containing 0.5% FBS. 400 μL of culture medium containing the compound of different concentrations (20 nM and 2500 nM) was added to each well and cultured for about 12 hours. The supernatant was collected and PGE2 was detected using ELISA kit (R&D Systems, Cat. No.: KGE004B).

Compound | IC50 (15-PGDH) | AUC(0-t) (Pharmacokinetics in mice) | Cmax (Pharmacokinetics in mice) | Fold increase of PGE2 in A549 cell supernatant (A549 cells) | further results
Cn1nc2cc(N3CC4CC4c4cc(C(=O)N5CCC(F)(F)CC5)cnc43)ccn2c1=O (single isomer, unassigned) [Compound I-3B] |  |  |  |  | DAI (IBD in mice; G4, 2.5 mg/kg bid): significant decrease; body weight (IBD in mice; G4, 2.5 mg/kg bid): increase; inflammatory cell infiltration score of colon tissues (IBD in mice; G4, 2.5 mg/kg bid): significant decrease; tissue injury score of colon tissues (IBD in mice; G4, 2.5 mg/kg bid): significant decrease; Colon weight CW (g) (IBD in mice; G4 low-dose, 2.5 mg/kg bid): significant decrease; DAI (IBD in mice; G5, 5 mg/kg bid): significant decrease; body weight (IBD in mice; G5, 5 mg/kg bid): significant increase; inflammatory cell infiltration score of colon tissues (IBD in mice; G5, 5 mg/kg bid): significant decrease; tissue injury score of colon tissues (IBD in mice; G5, 5 mg/kg bid): significant decrease; Colon weight CW (g) (IBD in mice; G5 high-dose, 5 mg/kg bid): significant decrease
Cn1ccc2cc(N3CC4CC4c4cc(C(=O)N5CCC(F)(F)CC5)cnc43)ccc2c1=O (stereo not drawn) [Compound I-12, 6-(6-(4,4-difluoropiperidine-1-carbonyl)-1,1a,2,7b-tetrahydro-3H-cyclopropa[c][1,8]naphthyridin-3-yl)-2-methylisoquinolin-1(2H)-one] | 2.1 nM | 107000 ng·h/mL | 14800 ng/mL | 5.44 | 
Cn1nc2cc(N3CC4CC4c4cc(C(=O)N5CCC6(CC5)CC6)cnc43)ccn2c1=O (stereo not drawn) [Compound I-28, 7-(6-(6-azaspiro[2.5]octane-6-carbonyl)-1,1a,2,7b-tetrahydro-3H-cyclopropa[c][1,8]naphthyridin-3-yl)-2-methyl-[1,2,4]triazolo[4,3-a]pyridin-3(2H)-one] | 1.71 nM | 10700 ng·h/mL | 5040 ng/mL | 4.05 | 
Cn1nc2cc(N3CC4CC4c4cc(C(=O)N5CCC[C@@H](CF)C5)cnc43)ccn2c1=O (stereo partly drawn) [Compound I-30, 7-(6-((R)-3-(fluoromethyl)piperidine-1-carbonyl)-1,1a,2,7b-tetrahydro-3H-cyclopropa[c][1,8]naphthyridin-3-yl)-2-methyl-[1,2,4]triazolo[4,3-a]pyridin-3(2H)-one] | 6 nM |  |  | 2.72 | 
Cn1nc2cc(N3CC4CC4c4cc(C(=O)N5CCC[C@H](CF)C5)cnc43)ccn2c1=O (stereo partly drawn) [Compound I-31, 7-(6-((S)-3-(fluoromethyl)piperidine-1-carbonyl)-1,1a,2,7b-tetrahydro-3H-cyclopropa[c][1,8]naphthyridin-3-yl)-2-methyl-[1,2,4]triazolo[4,3-a]pyridin-3(2H)-one] | 4.1 nM |  |  | 2.90 | 
CCn1nc2cc(N3CC4CC4c4cc(C(=O)N5CCC(F)(F)CC5)cnc43)ccn2c1=O (stereo not drawn) [Compound I-32, 7-(6-(4,4-difluoropiperidine-1-carbonyl)-1,1a,2,7b-tetrahydro-3H-cyclopropa[c][1,8]naphthyridin-3-yl)-2-ethyl-[1,2,4]triazolo[4,3-a]pyridin-3(2H)-one] | 6.3 nM |  |  | 3.7 | 
